Laboratory results: patent US10391080B2, “Ketorolac for the treatment of cancer” (Cipla Limited, priority 2016, dated 2019)
Read-outs that look alike come from different tables or passages of the source.

Assays:
RXF 1183L [1] = test: In vitro 2D assay, CellTiter-Blue Cell Viability Assay; assay type: cell-based; conditions: Homo sapiens, 96 h treatment
Method: (§1) The objective of this study was to investigate the in-vitro anticancer activity of ketorolac. Antitumor activity was assessed in ten selected renal cancer cell lines by using the CellTiter-Blue Cell Viability Assay. The human renal cancer cell lines RXF 1183L, RXF 1220L, RXF 1781L, RXF 393L, RXF 486L, RXF 786-0, RXF A-498, RXF ACHN, RXF Caki-1 and RXF SN12C were used. RXF 1183L, RXF 1220L, RXF 1781L, RXF 393L and RXF 486L were established at Oncotest from the corresponding human patient-derived xenograft. The cell lines 786-0, A-498, Caki-1 and SN12C were purchased from NCI (National Cancer Institute, Bethesda, Md., USA). ACHN was purchased from ECACC (European Collection of Cell Cultures, Salisbury, UK). Authenticity of cell lines was confirmed at the DSMZ by STR (short tandem repeat) analysis, a PCR based DNA-fingerprinting methodology.
(§2) Cell lines were routinely passaged once or twice weekly and maintained in culture for up to 20 passages. All cells were grown at 37° C. in a humidified atmosphere with 5% CO2 in RPMI 1640 medium (25 mM HEPES, with L-glutamine, #FG1385, Biochrom, Berlin, Germany) supplemented with 10% (v/v) fetal calf serum (Sigma, Taufkirchen, Germany) and 0.1 mg/mL gentamicin (Life Technologies, Karlsruhe, Germany).
(§3) Ketorolac was dissolved at a concentration of 60 mM in cell culture media. Starting with this stock solution, dilutions were made using cell culture media resulting in final test concentrations of 12000, 7800, 6000, 4200, 3000, 1800, 600, 420, 180, 60 μM. Precipitation was not observed.
(§4) The CellTiter-Blue Cell Viability Assay was used according to manufacturer's instructions. Briefly, cells were harvested from exponential phase cultures, counted and plated in 96-well flat-bottom microtiter plates at a cell density of 4,000-12,000 cells/well depending on the cell line's growth rate. After a 24 h recovery period to allow the cells to resume exponential growth, ketorolac was applied at 8 to 10 concentrations in duplicate and treatment continued for 96 h. After 96 h treatment of cells, 20 μL/well CellTiter-Blue® reagent was added. Following an incubation period of up to four hours, fluorescence (FU) was measured by using the Enspire Multimode Plate Reader (excitation λ=531 nm, emission λ=615 nm).
(§5) For calculations, the mean values of duplicate/quadruplicate (untreated control) data were used. Sigmoidal concentration-response curves were fitted to the data points (T/C values) obtained for each cell line using 4 parameter non-linear curve fit.

RXF 1220L = test: as above; assay type: cell-based; conditions: Homo sapiens, 96 h treatment
Method: as §1, §2, §3, §4, §5

RXF 1781L = test: as above; assay type: cell-based; conditions: Homo sapiens, 96 h treatment
Method: as §1, §2, §3, §4, §5

RXF 393L = test: as above; assay type: cell-based; conditions: Homo sapiens, 96 h treatment
Method: as §1, §2, §3, §4, §5

RXF 486L = test: as above; assay type: cell-based; conditions: Homo sapiens, 96 h treatment
Method: as §1, §2, §3, §4, §5

RXF 786-0 = test: as above; assay type: cell-based; conditions: Homo sapiens, 786-O, 96 h treatment
Method: as §1, §2, §3, §4, §5

RXF A-498 [2] = test: as above; assay type: cell-based; conditions: Homo sapiens, A498, A-498, 2D, 96 h treatment
Method: as §1, §2, §3, §4, §5

RXF ACHN = test: as above; assay type: cell-based; conditions: Homo sapiens, 96 h treatment
Method: as §1, §2, §3, §4, §5

RXF Caki-1 = test: as above; assay type: cell-based; conditions: Homo sapiens, Caki-1, 2D, 96 h treatment
Method: as §1, §2, §3, §4, §5

RXF SN12C = test: as above; assay type: cell-based; conditions: Homo sapiens, 96 h treatment
Method: as §1, §2, §3, §4, §5

[3] = system: ten selected renal cancer cell lines; test: In vitro 2D assay, CellTiter-Blue Cell Viability Assay, whole panel; assay type: cell-based, human; conditions: for IC50: Homo sapiens, geometric mean of ten cell lines, 96 h treatment
Method: as §1, §2, §3
The CellTiter-Blue Cell Viability Assay was used according to manufacturer's instructions. Briefly, cells were harvested from exponential phase cultures, counted and plated in 96-well flat-bottom microtiter plates at a cell density of 4,000-12,000 cells/well depending on the cell line's growth rate. […] Following an incubation period of up to four hours, fluorescence (FU) was measured by using the Enspire Multimode Plate Reader (excitation λ=531 nm, emission λ=615 nm). […]

RXF 1183L [4] = test: In vitro 3D combination study, clonogenic assay, Bliss independence; assay type: cell-based, human; conditions: RXF 1183L cells seeded in soft agar, concentration-dependent
Method: (§6) The objective of this study was to assess anti-tumor efficacy of ketorolac in combination with sunitinib in a 5×5 matrix combination format against tumor cell lines of renal cancer using a clonogenic assay with image analysis as read-out.
(§7) The clonogenic assay was carried out in a 96 well plate format using ultra low attachment plates. For each test cells were prepared as described above, and assay plates were prepared as follows: each test well contained a layer of semi-solid medium with tumor cells (50 μl), and a second layer of medium supernatant with or without test compounds (100 μl). The cell layer consisted of 3×10^3 to 1×10^4 tumor cells per well, which were seeded in 50 μl/well cell culture medium (IMDM, supplemented with 20% (v/v) fetal calf serum, 0.01% (w/v) gentamicin, and 0.4% (w/v) agar). The soft agar layer was immediately covered with 90 μl of the same culture medium without agar. After 24 h the test compounds were added after serial dilution in IMDM and transfer in cell culture medium, and left on the cells for the duration of the experiment (continuous exposure, 100 μL total drug overlay). Every plate included six untreated control wells and drug-treated groups in a layout as shown above. […] At the time of maximum colony formation, counts were performed with an automatic image analysis system (Celllnsight NXT, Thermo Scientific). […]

RXF A-498 [5] = test: as above; assay type: cell-based, human; conditions: RXF A-498 cells seeded in soft agar, concentration-dependent
Method: as §6, §7

Par-4 = test: PAR-4 activity, Western blot of cell supernatant and lysate; assay type: cell-based; conditions: normal mouse embryonic fibroblast cells, 25 μM, 18-21 h, cell supernatant, dose dependent
Method: Mouse embryonic fibroblast cells were harvested from exponential phase cultures. After a 24 h recovery period to allow the cells to resume exponential growth the cells were treated with 25 μM of ketorolac followed by further 18-21 h of incubation. Induction of Par-4 was checked in the cell supernatant and cell lysate by subjecting the samples to Western blot analysis with antibodies specific for Par-4. The samples were also subjected to SDS/PAGE and Coomassie blue staining to determine albumin levels in serum from the CM as another loading control.

SMILES: O=C(c1ccccc1)c1ccc2n1CCC2C(=O)O (racemic) [Ketorolac, (±)-5-benzoyl-2,3-dihydro-1H-pyrrolizine-1-carboxylic acid]
- IC50 (RXF 1183L [1]; read-out: Absolute IC50): 2.4 mM
- IC50 (RXF 1183L [1]; read-out: Relative IC50): 2.67 mM
- IC50 (RXF 1220L; read-out: Absolute IC50): 4.77 mM
- IC50 (RXF 1220L; read-out: Relative IC50): 5.36 mM
- IC50 (RXF 1781L; read-out: Absolute IC50): 3.82 mM
- IC50 (RXF 1781L; read-out: Relative IC50): 4.44 mM
- IC50 (RXF 393L; read-out: Absolute IC50): 3.14 mM
- IC50 (RXF 393L; read-out: Relative IC50): 3.75 mM
- IC50 (RXF 486L; read-out: Absolute IC50): 3.15 mM
- IC50 (RXF 486L; read-out: Relative IC50): 3.29 mM
- IC50 (RXF 786-0; read-out: Absolute IC50): 3.25 mM
- IC50 (RXF 786-0; read-out: Relative IC50): 3.85 mM
- IC50 (RXF A-498 [2]; read-out: Absolute IC50): 4.75 mM
- IC50 (RXF A-498 [2]; read-out: Relative IC50): 5.65 mM
- IC50 (RXF ACHN; read-out: Absolute IC50): 2.8 mM
- IC50 (RXF ACHN; read-out: Relative IC50): 3.39 mM
- IC50 (RXF Caki-1; read-out: Absolute IC50): 2.79 mM
- IC50 (RXF Caki-1; read-out: Relative IC50): 3.44 mM
- IC50 (RXF SN12C; read-out: Absolute IC50): 2.44 mM
- IC50 (RXF SN12C; read-out: Relative IC50): 2.82 mM
- IC50 ([3]; read-out: Absolute IC50, geometric mean): 3.24 mM
- IC50 ([3]; read-out: Relative IC50, geometric mean): 3.76 mM
- Activity in all cell lines tested (concentration-effect curves) ([3]; both runs, all cell lines tested): Concentration-dependent activity
- Colony formation, single agent (RXF 1183L [4]): inhibited colony formation
- Colony formation, single agent (RXF A-498 [5]): inhibited colony formation
- Induction of Par-4 secretion (Par-4): robust Par-4 secretion
